Structures are written as SMILES.

We go through 27 compounds from US9181186B2, “Aromatic ring compound” (TAKEDA PHARMACEUTICAL COMPANY LIMITED, priority 2012, dated 2015).

This experiment addresses T1, human GPR40 (Homo sapiens, UniProt O14842).
T1 construct: expressed in transfected cells
As to the kind of experiment: Evaluation of human GPR40 agonist activity with increase in intracellular Ca2+ concentration as an index (FLIPR Tetra). The class given is cell-based. Conditions: test compound 1 μM; CHO(dhfr−) cells stably expressing human GPR40; 100% = 1 μM WO2009/048527 Example 99.2, 0% = DMSO. As to the method: Evaluation of Human GPR40 Agonist Activity with Increase in Intracellular Ca^2+ Concentration as an Index
CHO(dhfr−) cells that stably expressed human GPR40 were suspended in MEMα (Nikken Bio Medical Laboratory) containing 10% dialysis serum (GEMINI BIO-PRODUCTS), 10 mM HEPES (Invitrogen), 100 U/mL penicillin, 100 μg/mL streptomycin (Invitrogen), and plated on a 384 well black/clear cell culture plate at 10,000 cells/well. After culture overnight in a CO2 incubator at 37° C., the culture supernatant was removed, and a loading buffer [dye attached to Calcium 5 Assay Kit (Molecular Devices) was dissolved in an assay buffer (20 mM HEPES, 0.2% fatty acid-free BSA (Sigma-Aldrich), 2.5 mM probenecid (DOJINDO)-containing HBSS (Invitrogen)) added with 0.025% Cremophor EL (DOJINDO)] was added at 37.5 μL/well. After incubation in a CO2 incubator at 37° C. for 1 hr, the cells were stood at room temperature for 15 min, an assay buffer containing the test compound at a final concentration of 1 μM was added at 12.5 μL/well in FLIPR Tetra (Molecular Devices), and the fluorescence amount was successively measured. Human GPR40 agonist activity calculated using an increase in the intracellular Ca^2+ concentration as an index, wherein the activity of 1 μM of the compound described in WO 2009/048527 (WO2009/048527 Example 99.2) was 100%, and the activity when DMSO was added instead of the test compound was 0%.

T1 sequence (O14842 whole entry): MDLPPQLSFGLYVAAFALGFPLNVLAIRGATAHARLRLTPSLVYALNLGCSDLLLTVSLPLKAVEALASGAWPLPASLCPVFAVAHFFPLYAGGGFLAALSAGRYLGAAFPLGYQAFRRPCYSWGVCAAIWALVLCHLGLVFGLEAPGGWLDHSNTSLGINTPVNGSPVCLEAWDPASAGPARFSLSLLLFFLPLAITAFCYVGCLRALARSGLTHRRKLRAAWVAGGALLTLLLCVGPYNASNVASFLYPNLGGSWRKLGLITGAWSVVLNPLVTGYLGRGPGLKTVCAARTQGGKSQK

`COc1ccc(F)c(-c2ncc(COc3cc(C(CC(=O)O)C4CC4)ccn3)cc2CC(C)(C)C)c1` (stereo not drawn) [Example 40, 3-cyclopropyl-3-(2-((5-(2,2-dimethylpropyl)-6-(2-fluoro-5-methoxyphenyl)pyridin-3-yl)methoxy)pyridin-4-yl)propanoic acid] yielded an activation at 1 µM of 113%.

In turn, `COc1ccc(F)c(-c2ccc(COc3cc(F)cc(CCC(=O)O)c3)nc2CC(C)(C)C)c1` [Example 16, 3-(3-((6-(2,2-dimethylpropyl)-5-(2-fluoro-5-methoxyphenyl)pyridin-2-yl)methoxy)-5-fluorophenyl)propanoic acid] returned an activation at 1 µM of 109%.

Turning to `COc1ccc(F)c(-c2cnc(COc3cc(C(CC(=O)O)C4CC4)ncn3)nc2OCC(C)C)c1` (stereo not drawn) [Example 41, 3-cyclopropyl-3-(6-((5-(2-fluoro-5-methoxyphenyl)-4-isobutoxypyrimidin-2-yl)methoxy)pyrimidin-4-yl)propanoic acid], the activation at 1 µM was 110%.

Compound `COc1ccc(F)c(-c2ccc(COc3ccc(OC)c(CCC(=O)O)c3)nc2CC(C)(C)C)c1` [Example 18, 3-(5-((6-(2,2-dimethylpropyl)-5-(2-fluoro-5-methoxyphenyl)pyridin-2-yl)methoxy)-2-methoxyphenyl)propanoic acid] had an activation at 1 µM of 109%.

Consider `COc1ccc(F)c(-c2ccc(COc3cccc(CCC(=O)O)c3F)nc2CC(C)(C)C)c1` [Example 22, 3-(3-((6-(2,2-dimethylpropyl)-5-(2-fluoro-5-methoxyphenyl)pyridin-2-yl)methoxy)-2-fluorophenyl)propanoic acid], for which the activation at 1 µM was 103%.

Regarding `COc1ccc(F)c(-c2ccc(COc3cc(C(CC(=O)O)C4CC4)ncn3)nc2CC(C)(C)C)c1` (stereo not drawn) [Example 8, 3-cyclopropyl-3-(6-((6-(2,2-dimethylpropyl)-5-(2-fluoro-5-methoxyphenyl)pyridin-2-yl)methoxy)pyrimidin-4-yl)propanoic acid], the activation at 1 µM is 106%.

With `COc1ccc(F)c(-c2ccc(COc3ccc(C)c(CCC(=O)O)c3)nc2CC(C)(C)C)c1` [Example 17, 3-(5-((6-(2,2-dimethylpropyl)-5-(2-fluoro-5-methoxyphenyl)pyridin-2-yl)methoxy)-2-methylphenyl)propanoic acid], the activation at 1 µM came out at 109%.

`COc1ccc(F)c(-c2ccc(COc3cccc(C(CC(=O)O)C4CC4)c3)nc2CC(C)(C)C)c1` (single isomer, unassigned) [Example 7, 3-cyclopropyl-3-(3-((6-(2,2-dimethylpropyl)-5-(2-fluoro-5-methoxyphenyl)pyridin-2-yl)methoxy)phenyl)propanoic acid]: the “Human GPR40 agonist activity (increase in intracellular Ca2+ concentration)” value turned out to be 106%.

`COc1ccc(F)c(-c2ccc(COc3cc(C(CC(=O)O)C4CC4)ccn3)nc2CC(C)(C)C)c1` (stereo not drawn) [Example 30, 3-cyclopropyl-3-(2-((6-(2,2-dimethylpropyl)-5-(2-fluoro-5-methoxyphenyl)pyridin-2-yl)methoxy)pyridin-4-yl)propanoic acid] came in with an activation at 1 µM of 112%.

Consider `COc1ccc(F)c(-c2ncc(COc3cc(C(CC(=O)O)C4CC4)c(F)cn3)cc2CC2(C#N)CCCC2)c1` (stereo not drawn) [Example 44, 3-(2-((5-((1-cyanocyclopentyl)methyl)-6-(2-fluoro-5-methoxyphenyl)pyridin-3-yl)methoxy)-5-fluoropyridin-4-yl)-3-cyclopropylpropanoic acid], for which the “Human GPR40 agonist activity (increase in intracellular Ca2+ concentration)” value is reported as 107%.

Regarding `COc1ccc(F)c(-c2ccc(COc3cc(C(CC(=O)O)C4CC4)ncn3)nc2OCC(C)C)c1` (stereo not drawn) [Example 2, 3-cyclopropyl-3-(6-((5-(2-fluoro-5-methoxyphenyl)-6-isobutoxypyridin-2-yl)methoxy)pyrimidin-4-yl)propanoic acid], the activation at 1 µM was determined as 107%.

In turn, `COc1ccc(F)c(-c2ncc(COc3cccc(C(CC(=O)O)C4CC4)c3)cc2CC(C)(C)C)c1` (stereo not drawn) [Example 34, 3-cyclopropyl-3-(3-((5-(2,2-dimethylpropyl)-6-(2-fluoro-5-methoxyphenyl)pyridin-3-yl)methoxy)phenyl)propanoic acid] showed an activation at 1 µM of 118%.

Compound `COc1ccc(F)c(-c2cnc(COc3cc(C(CC(=O)O)C4CC4)ncn3)cc2OCC(C)C)c1` (stereo not drawn) [Example 6, 3-cyclopropyl-3-(6-((5-(2-fluoro-5-methoxyphenyl)-4-isobutoxypyridin-2-yl)methoxy)pyrimidin-4-yl)propanoic acid] came in with an activation at 1 µM of 98%.

`COc1ccc(F)c(-c2ccc(COc3cccc(C(CC(=O)O)C4CC4)c3)nc2CC(C)(C)C)c1` (stereo not drawn) [Example 11, 3-cyclopropyl-3-(3-((6-(2,2-dimethylpropyl)-5-(2-fluoro-5-methoxyphenyl)pyridin-2-yl)methoxy)phenyl)propanoic acid] registered an activation at 1 µM of 100%.

The compound `COc1cc(CCC(=O)O)cc(OCc2ccc(-c3cc(OC)ccc3F)c(CC(C)(C)C)n2)c1` [Example 15, 3-(3-((6-(2,2-dimethylpropyl)-5-(2-fluoro-5-methoxyphenyl)pyridin-2-yl)methoxy)-5-methoxyphenyl)propanoic acid] gave an activation at 1 µM of 103%.

In turn, `COc1ccc(F)c(-c2ncc(COc3cc(C(CC(=O)O)C4CC4)ncn3)cc2CC(C)(C)C)c1` (stereo not drawn) [Example 35, 3-cyclopropyl-3-(6-((5-(2,2-dimethylpropyl)-6-(2-fluoro-5-methoxyphenyl)pyridin-3-yl)methoxy)pyrimidin-4-yl)propanoic acid] had an activation at 1 µM of 101%.

As for `COc1ccc(F)c(-c2ncc(COc3cc(C(CC(=O)O)C4CC4)ncn3)cc2OCC(C)(C)C)c1` (stereo not drawn) [Example 36, 3-cyclopropyl-3-(6-((5-(2,2-dimethylpropoxy)-6-(2-fluoro-5-methoxyphenyl)pyridin-3-yl)methoxy)pyrimidin-4-yl)propanoic acid], the activation at 1 µM worked out at 106%.

Turning to `COc1ccc(F)c(-c2ccc(COc3cc(CCC(=O)O)ccc3C)nc2CC(C)(C)C)c1` [Example 13, 3-(3-((6-(2,2-dimethylpropyl)-5-(2-fluoro-5-methoxyphenyl)pyridin-2-yl)methoxy)-4-methylphenyl)propanoic acid], the activation at 1 µM was 110%.

In turn, `COc1ccc(F)c(-c2ncc(COc3cc(C(CC(=O)O)C4CC4)ncn3)cc2OCC(C)C)c1` (stereo not drawn) [Example 32, 3-cyclopropyl-3-(6-((6-(2-fluoro-5-methoxyphenyl)-5-isobutoxypyridin-3-yl)methoxy)pyrimidin-4-yl)propanoic acid] showed an activation at 1 µM of 104%.

As for `COc1ccc(F)c(-c2ccc(COc3cccc(CCC(=O)O)c3)nc2CC(C)(C)C)c1` [Example 29, 3-(3-((6-(2,2-dimethylpropyl)-5-(2-fluoro-5-methoxyphenyl)pyridin-2-yl)methoxy)phenyl)propanoic acid], the activation at 1 µM came to 103%.

For the compound `COc1ccc(F)c(-c2ncc(COc3cc(C(CC(=O)O)C4CC4)c(F)cn3)cc2CC2(C#N)CCCC2)c1` (stereo not drawn) [Example 43, 3-(2-((5-((1-cyanocyclopentyl)methyl)-6-(2-fluoro-5-methoxyphenyl)pyridin-3-yl)methoxy)-5-fluoropyridin-4-yl)-3-cyclopropylpropanoic acid], the activation at 1 µM was found to be 115%.

`COc1ccc(F)c(-c2ccc(COc3cc(C)cc(CCC(=O)O)c3)nc2CC(C)(C)C)c1` [Example 23, Sodium 3-(3-((6-(2,2-dimethylpropyl)-5-(2-fluoro-5-methoxyphenyl)pyridin-2-yl)methoxy)-5-methylphenyl)propanoate] gave an activation at 1 µM of 99%.

As for `COc1ccc(F)c(-c2ccc(COc3cc(C(CC(=O)O)C4CC4)ccc3OC)nc2CC(C)(C)C)c1` (stereo not drawn) [Example 12, 3-cyclopropyl-3-(3-((6-(2,2-dimethylpropyl)-5-(2-fluoro-5-methoxyphenyl)pyridin-2-yl)methoxy)-4-methoxyphenyl)propanoic acid], the activation at 1 µM was 112%.

With `COc1ccc(F)c(-c2ccc(COc3cc(C(CC(=O)O)C4CC4)c(F)cn3)nc2CC(C)(C)C)c1` (stereo not drawn) [Example 42, 3-cyclopropyl-3-(5-fluoro-2-((5-(2-fluoro-5-methoxyphenyl)-6-neopentylpyridin-2-yl)methoxy)pyridin-4-yl)propanoic acid], the activation at 1 µM turned out to be 115%.

`COc1ccc(F)c(-c2ncc(COc3cccc(C(CC(=O)O)C4CC4)c3)cc2OCC(C)C)c1` (stereo not drawn) [Example 31, 3-cyclopropyl-3-(3-((6-(2-fluoro-5-methoxyphenyl)-5-isobutoxypyridin-3-yl)methoxy)phenyl)propanoic acid] displayed an activation at 1 µM of 104%.

`COc1ccc(F)c(-c2ccc(COc3cccc(C(CC(=O)O)C4CC4)c3)nc2OCC(C)C)c1` (stereo not drawn) [Example 1, 3-cyclopropyl-3-(3-((5-(2-fluoro-5-methoxyphenyl)-6-isobutoxypyridin-2-yl)methoxy)phenyl)propanoic acid] gave an activation at 1 µM of 100%.

`COc1ccc(F)c(-c2ccc(COc3ccc(F)c(CCC(=O)O)c3)nc2CC(C)(C)C)c1` [Example 19, 3-(5-((6-(2,2-dimethylpropyl)-5-(2-fluoro-5-methoxyphenyl)pyridin-2-yl)methoxy)-2-fluorophenyl)propanoic acid] yielded an activation at 1 µM of 109%.
